Columns and labels:
[1] = system: crabgrass; assay: Test B pre/postemergence crabgrass; format: in vivo, Digitaria sanguinalis
Method in brief: (§1)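 Herbicidal effect was estimated by eye on a ten-point control scale after plants spent twelve to sixteen days in a greenhouse following soil or foliar treatment. Foliar sprays targeted plants at one to four leaves; all doses were formulated in a non-phytotoxic solvent with surfactant.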

[2] = system: giant foxtail; assay: Test B pre/postemergence giant foxtail; format: in vivo, Setaria faberii
Method in brief: as §1

[3] = system: sugar beet; assay: Test B pre/postemergence sugar beet; format: in vivo, Beta vulgaris; details: for Plant response rating, Sugarbeets: Postemergence
Method in brief: as §1

[4] = system: surinam grass; assay: Test B pre/postemergence surinam grass; format: in vivo, Brachiaria decumbens
Method in brief: as §1

[5] = system: corn; assay: Test B pre/postemergence corn; format: in vivo, Zea mays
Method in brief: as §1

[6] = system: bedstraw; assay: Test B pre/postemergence bedstraw; format: in vivo, Galium aparine; details: Preemergence
Method in brief: as §1

[7] = system: morningglory; assay: Test B pre/postemergence morningglory; format: in vivo, Ipomoea hederacea
Method in brief: as §1

[8] = system: velvetleaf; assay: Test B pre/postemergence velvetleaf; format: in vivo, Abutilon theophrasti; details: for Plant response rating, Velvetleaf: Postemergence
Method in brief: as §1

[9] = system: wheat; assay: Test B pre/postemergence wheat; format: in vivo, Triticum aestivum; details: for Plant response rating, Wheat: Postemergence
Method in brief: as §1

[10] = system: soybean; assay: Test B pre/postemergence soybean; format: in vivo, Glycine max; details: for Plant response rating, Soybean: Postemergence
Method in brief: as §1

[11] = system: purple nutsedge; assay: Test B pre/postemergence purple nutsedge; format: in vivo, Cyperus rotundus
Method in brief: as §1

[12] = system: pigweed; assay: Test B pre/postemergence pigweed; format: in vivo, Amaranthus retroflexus; details: for Plant response rating, Redroot pigweed: Postemergence
Method in brief: as §1

[13] = system: rape; assay: Test B pre/postemergence rape; format: in vivo, Brassica napus
Method in brief: as §1

[14] = system: wild oat; assay: Test B pre/postemergence wild oat; format: in vivo, Avena fatua; details: for Plant response rating, Wild oats: Postemergence
Method in brief: as §1

[15] = system: blackgrass; assay: Test B pre/postemergence blackgrass; format: in vivo, Alopecurus myosuroides
Method in brief: as §1

[16] = system: cocklebur; assay: Test B pre/postemergence cocklebur; format: in vivo, Xanthium strumarium
Method in brief: as §1

[17] = Postemergence, Rate 62 g/ha, scale of 0 to 10, 0 is no effect, 10 is complete control
[18] = Postemergence, Rate 125 g/ha, scale 0 to 10, 0 is no effect, 10 is complete control
[19] = Postemergence, Rate 500 g/ha, scale of 0 to 10 where 0 is no effect and 10 is complete control
[20] = Preemergence, Rate 62 g/ha, scale 0 to 10 (0 no effect, 10 complete control)
[21] = Preemergence, Rate 125 g/ha, scale 0 to 10, 0 is no effect, 10 is complete control
[22] = Preemergence, Rate 500 g/ha, scale of 0 to 10 where 0 is no effect and 10 is complete control
[23] = Rate 250 g/ha, Postemergence, scale of 0 to 10 where 0 is no effect and 10 is complete control
[24] = Rate 500 g/ha, scale of 0 to 10 where 0 is no effect and 10 is complete control
[25] = Rate 250 g/ha, scale of 0 to 10 where 0 is no effect and 10 is complete control

CCN(CC)C(=O)Cn1c(=O)on(C(=O)N(c2ccccc2)C(C)C)c1=O [Compound 571] was tested, and the “Crabgrass plant response rating” value [1, 17] was 0, the “Crabgrass plant response rating” value [1, 18] was 0 and the “Plant response rating, Crabgrass” value [1, 19] was 3. The “Crabgrass plant response rating” value [1, 20] was 2, the “Crabgrass plant response rating” value [1, 21] was 2 and the “Crabgrass plant response rating (0 to 10 scale)” value ([1]; Preemergence, Rate 250 g/ha) was 3. For the same compound, the “Crabgrass plant response rating” value [1, 22] was 3, the “Giant foxtail plant response rating” value [2, 17] was 0 and the “Giant foxtail plant response rating” value [2, 18] was 0. For the same compound, the “Plant response rating, Giant foxtail” value [2, 19] was 3, the “Giant foxtail plant response rating” value [2, 20] was 3 and the “Giant foxtail plant response rating” value [2, 21] was 3. The “Giant foxtail plant response rating (0 to 10 scale)” value ([2]; Preemergence, Rate 250 g/ha) was 9, the “Giant foxtail plant response rating” value [2, 22] was 9 and the “Plant response rating, Giant foxtail” value [2, 23] was 2. For the same compound, the “Plant response rating, Sugarbeets” value [3, 24] was 0, the “Sugarbeets plant response rating” value [3, 20] was 0 and the “Sugarbeets plant response rating” value [3, 21] was 0. The “Sugarbeets plant response rating (0 to 10 scale)” value ([3]; Preemergence, Rate 250 g/ha) was 0, the “Sugarbeets plant response rating” value [3, 22] was 0 and the “Plant response rating, Sugarbeets” value [3, 25] was 0. For the same compound, the “B. signalgrass plant response rating” value [4, 17] was 0, the “B. signalgrass plant response rating” value [4, 18] was 0 and the “Plant response rating, B. signalgrass” value [4, 19] was 5. The “B. signalgrass plant response rating” value [4, 20] was 0, the “B. signalgrass plant response rating” value [4, 21] was 3 and the “B. signalgrass plant response rating (0 to 10 scale, 0 is no effect, 10 is complete control)” value ([4]; Preemergence, Rate 250 g/ha) was 3. For the same compound, the “B. signalgrass plant response rating” value [4, 22] was 9, the “Plant response rating, B. signalgrass” value [4, 23] was 0 and the “Corn plant response rating” value [5, 17] was 0. The “Corn plant response rating” value [5, 18] was 0, the “Plant response rating, Corn” value [5, 19] was 0 and the “Corn plant response rating” value [5, 20] was 0. For the same compound, the “Corn plant response rating” value [5, 21] was 0, the “Corn plant response rating (0 to 10 scale)” value ([5]; Preemergence, Rate 250 g/ha) was 0 and the “Corn plant response rating” value [5, 22] was 0. The “Plant response rating, Corn” value [5, 23] was 0, the “Bedstraw plant response rating” value ([6]; Rate 62 g/ha, scale 0 to 10 (0 no effect, 10 complete control)) was 0 and the “Bedstraw plant response rating” value ([6]; Rate 125 g/ha, scale 0 to 10, 0 is no effect, 10 is complete control) was 0. The “Bedstraw plant response rating (0 to 10 scale)” value ([6]; Rate 250 g/ha) was 0, the “Bedstraw plant response rating” value [6, 24] was 0 and the “Morningglory plant response rating” value [7, 17] was 4. The “Morningglory plant response rating” value [7, 18] was 10, the “Plant response rating, Morningglory” value [7, 19] was 10 and the “Morningglory plant response rating” value [7, 20] was 0. For the same compound, the “Morningglory plant response rating” value [7, 21] was 0, the “Morningglory plant response rating (0 to 10 scale)” value ([7]; Preemergence, Rate 250 g/ha) was 2 and the “Morningglory plant response rating” value [7, 22] was 4. For the same compound, the “Plant response rating, Morningglory” value [7, 23] was 10, the “Plant response rating, Velvetleaf” value [8, 24] was 0 and the “Velvetleaf plant response rating” value [8, 20] was 0. The “Velvetleaf plant response rating” value [8, 21] was 0, the “Velvetleaf plant response rating (0 to 10 scale)” value ([8]; Preemergence, Rate 250 g/ha) was 0 and the “Velvetleaf plant response rating” value [8, 22] was 0. For the same compound, the “Plant response rating, Velvetleaf” value [8, 25] was 0, the “Plant response rating, Wheat” value [9, 24] was 0 and the “Wheat plant response rating” value [9, 20] was 0. For the same compound, the “Wheat plant response rating” value [9, 21] was 3, the “Wheat plant response rating (0 to 10 scale)” value ([9]; Preemergence, Rate 250 g/ha) was 3 and the “Wheat plant response rating” value [9, 22] was 9. The “Plant response rating, Wheat” value [9, 25] was 0, the “Plant response rating, Soybean” value [10, 24] was 4 and the “Soybean plant response rating” value [10, 20] was 0. For the same compound, the “Soybean plant response rating” value [10, 21] was 0, the “Soybean plant response rating (0 to 10 scale)” value ([10]; Preemergence, Rate 250 g/ha) was 0 and the “Soybean plant response rating” value [10, 22] was 3. The “Plant response rating, Soybean” value [10, 25] was 2, the “Nutsedge plant response rating” value [11, 17] was 0 and the “Nutsedge plant response rating” value [11, 18] was 0. The “Plant response rating, Nutsedge” value [11, 19] was 0, the “Nutsedge plant response rating” value [11, 20] was 0 and the “Nutsedge plant response rating” value [11, 21] was 0. The “Nutsedge plant response rating (0 to 10 scale)” value ([11]; Preemergence, Rate 250 g/ha) was 0, the “Nutsedge plant response rating” value [11, 22] was 0 and the “Plant response rating, Nutsedge” value [11, 23] was 0. For the same compound, the “Plant response rating, Redroot pigweed” value [12, 24] was 0, the “Redroot pigweed plant response rating” value [12, 20] was 0 and the “Redroot pigweed plant response rating” value [12, 21] was 0. For the same compound, the “Redroot pigweed plant response rating (0 to 10 scale)” value ([12]; Preemergence, Rate 250 g/ha) was 9, the “Redroot pigweed plant response rating” value [12, 22] was 9 and the “Plant response rating, Redroot pigweed” value [12, 25] was 0. For the same compound, the “Rape plant response rating” value [13, 17] was 0, the “Rape plant response rating” value [13, 18] was 0 and the “Plant response rating, Rape” value [13, 19] was 0. For the same compound, the “Rape plant response rating” value [13, 20] was 0, the “Rape plant response rating” value [13, 21] was 0 and the “Rape plant response rating (0 to 10 scale)” value ([13]; Preemergence, Rate 250 g/ha) was 0. The “Rape plant response rating” value [13, 22] was 2, the “Plant response rating, Rape” value [13, 23] was 0 and the “Plant response rating, Wild oats” value [14, 24] was 0. For the same compound, the “Wild oats plant response rating” value [14, 20] was 0, the “Wild oats plant response rating” value [14, 21] was 0 and the “Wild oats plant response rating (0 to 10 scale)” value ([14]; Preemergence, Rate 250 g/ha) was 3. For the same compound, the “Wild oats plant response rating” value [14, 22] was 7, the “Plant response rating, Wild oats” value [14, 25] was 0 and the “Blackgrass plant response rating” value [15, 17] was 0. For the same compound, the “Blackgrass plant response rating” value [15, 18] was 0, the “Plant response rating, Blackgrass” value [15, 19] was 0 and the “Blackgrass plant response rating” value [15, 20] was 0. The “Blackgrass plant response rating” value [15, 21] was 2, the “Blackgrass plant response rating (0 to 10 scale)” value ([15]; Preemergence, Rate 250 g/ha) was 3 and the “Blackgrass plant response rating” value [15, 22] was 9. For the same compound, the “Plant response rating, Blackgrass” value [15, 23] was 0, the “Cocklebur plant response rating” value [16, 17] was 0 and the “Cocklebur plant response rating” value [16, 18] was 0. For the same compound, the “Plant response rating, Cocklebur” value [16, 19] was 0, the “Cocklebur plant response rating” value [16, 20] was 0 and the “Cocklebur plant response rating” value [16, 21] was 0. The “Cocklebur plant response rating (0 to 10 scale)” value ([16]; Preemergence, Rate 250 g/ha) was 0, the “Cocklebur plant response rating” value [16, 22] was 0 and the “Plant response rating, Cocklebur” value [16, 23] was 0.
